Some test systems named below: HCT-15 colon; OVCAR-3 ovarian; SK-OV-3 ovarian; UO-31 renal; A498 renal; SF-539 CNS; HCC-2998 colon; DU-145 prostate; OVCAR-5 ovarian; KM12 colon.
Holding throughout (assay): growth of human tumour cells (NCI), 48 h

The structures appear in SMILES notation. “And” between values parts separate entries of the source, which are not always exact repeats. Equal values may be shown once.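 1) Cells in 96-well plates. 2) Compound, 48 h, 5 concentrations. 3) Linear interpolation between surrounding doses. 4) Unreached endpoint = highest concentration. Abbreviation: GI50, concentration required for 50% inhibition of growth. TGI: total growth inhibition.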

Take `CCc1ccc(C2=C(O)C(=O)C(c3ccc(CC)cc3)=C(O)C2=O)cc1`: the GI50 in the assay on HCT-15 colon was 2.23 µM; in the assay on OVCAR-3 ovarian it was 1.57 µM; in the assay with SK-OV-3 ovarian, 2.05 µM; with UO-31 renal it was 1.73 µM; in the assay with A498 renal, 1.74 µM; with SF-539 CNS, 1.8 µM. For the same compound, the GI50 in the assay with HCC-2998 colon is 2.09 µM; with DU-145 prostate it was 2.81 µM; in the assay with OVCAR-5 ovarian, 1.61 µM; in the assay on KM12 colon it was 1.69 µM. Moreover, the TGI in the assay with HCT-15 colon worked out at 7.5 µM; in the assay with OVCAR-3 ovarian it was 3.13 µM; with SK-OV-3 ovarian, 5.66 µM; in the assay with UO-31 renal, 4.91 µM; in the assay with A498 renal it was 5.36 µM; in the assay with SF-539 CNS, 4.45 µM. For the same compound, the TGI was 5.75 µM in the assay on HCC-2998 colon, 10.6 µM in the assay on DU-145 prostate, 5.88 µM in the assay with OVCAR-5 ovarian and 4.04 µM in the assay on KM12 colon.
As to `CC1=C(N2CC2)C(=O)c2nc3n(c2C1=O)CCC3O` (stereo not drawn), the TGI was determined as 29.6 µM in the assay on HCT-15 colon; 0.763 µM in the assay with OVCAR-3 ovarian; 0.859 µM in the assay on SK-OV-3 ovarian; 4.18 µM with UO-31 renal; 0.521 µM with A498 renal; 0.669 µM with SF-539 CNS. Also, the TGI in the assay with HCC-2998 colon stood at 0.328 µM; with DU-145 prostate it was 0.0717 µM; in the assay with OVCAR-5 ovarian, 3.84 µM; with KM12 colon, 0.699 µM.
With `CC1(C)C2CCC1C(=O)C(C=O)C2` (stereo not drawn), the TGI in the assay with HCT-15 colon, with OVCAR-3 ovarian, in the assay with SK-OV-3 ovarian, in the assay on UO-31 renal, with A498 renal and in the assay with SF-539 CNS was greater than 100 µM in each case. Besides, the TGI in the assay on HCC-2998 colon, in the assay on DU-145 prostate, with OVCAR-5 ovarian and in the assay with KM12 colon was greater than 100 µM each time.
Consider `O=C1Cc2c(-c3ccccc3)cc(-c3cccc(Cl)c3)nc2-c2ccccc2N1`, for which the TGI is 17.6 µM with HCT-15 colon; 6.84 µM in the assay with OVCAR-3 ovarian; 9.49 µM with SK-OV-3 ovarian; 11.2 µM in the assay on UO-31 renal; 15.7 µM in the assay on A498 renal; greater than 29.9 µM with SF-539 CNS. For the same compound, the TGI in the assay with HCC-2998 colon is 7.76 µM; in the assay with DU-145 prostate, 11.8 µM; in the assay on OVCAR-5 ovarian, 30.3 µM; in the assay on KM12 colon, greater than 75.3 µM.
For the compound `COC(=O)c1ccc2c(c1)c1c(C)c3cnccc3c(C)c1n2C`, the GI50 is 0.0394 µM in the assay with HCT-15 colon; 0.0652 µM with OVCAR-3 ovarian; 0.107 µM with SK-OV-3 ovarian; 0.0369 µM in the assay on UO-31 renal; 0.0348 µM in the assay with A498 renal; 0.075 µM in the assay with SF-539 CNS. The GI50 in the assay with HCC-2998 colon is 0.137 µM; in the assay with DU-145 prostate it was 0.0513 µM; in the assay with OVCAR-5 ovarian it was 0.117 µM; with KM12 colon, 0.0495 µM. Besides, the TGI in the assay with HCT-15 colon turned out to be 1.38 µM; with OVCAR-3 ovarian, 1.15 µM; with SK-OV-3 ovarian, 0.527 µM; with UO-31 renal, 0.821 µM; with A498 renal, 0.166 µM; in the assay with SF-539 CNS it was 0.763 µM. Further, the TGI in the assay with HCC-2998 colon was determined as 3.85 µM; with DU-145 prostate it was 1.28 µM; with OVCAR-5 ovarian, 1.26 µM; in the assay on KM12 colon, 1.89 µM.
With `CCCCS(=N)(=O)CC[C@H](N)C(=O)O` (stereo partly drawn), the GI50 with HCT-15 colon was greater than 6960 µM; with OVCAR-3 ovarian, greater than 10000 µM; in the assay on SK-OV-3 ovarian it was greater than 10000 µM; with UO-31 renal it was greater than 10000 µM; in the assay with A498 renal, greater than 10000 µM; in the assay with SF-539 CNS, greater than 10000 µM. Moreover, the GI50 with HCC-2998 colon, in the assay with DU-145 prostate, in the assay on OVCAR-5 ovarian and in the assay with KM12 colon was greater than 10000 µM in each case. The TGI with HCT-15 colon was 4940 µM and > 10000 µM; in the assay on OVCAR-3 ovarian it was greater than 10000 µM; in the assay on SK-OV-3 ovarian it was greater than 10000 µM; in the assay on UO-31 renal, 2700 µM and > 10000 µM; in the assay on A498 renal, 5000 µM and > 10000 µM; in the assay on SF-539 CNS, 5000 µM and > 10000 µM. The TGI in the assay on HCC-2998 colon, in the assay with DU-145 prostate, in the assay on OVCAR-5 ovarian and in the assay with KM12 colon was greater than 10000 µM in each case.
In the case of `c1cc(-c2sc(-c3ccncc3)c(-c3ccncc3)c2-c2ccncc2)ccn1`, the TGI in the assay on HCT-15 colon was 56.7 µM; in the assay with OVCAR-3 ovarian, 44.4 µM; with SK-OV-3 ovarian, 54 µM; in the assay with UO-31 renal, 30 µM; with A498 renal it was 26.7 µM; with SF-539 CNS, 35 µM. The TGI in the assay with HCC-2998 colon was determined as 19.6 µM; in the assay on DU-145 prostate, 76 µM; in the assay with OVCAR-5 ovarian, 47.2 µM; with KM12 colon, 65.5 µM.
Take `NC(N)=NNC(=O)C(=O)O`: the TGI with HCT-15 colon, in the assay with OVCAR-3 ovarian, in the assay with SK-OV-3 ovarian, in the assay with UO-31 renal, with A498 renal and with SF-539 CNS was greater than 100 µM each time. Further, the TGI in the assay on HCC-2998 colon, with DU-145 prostate, in the assay with OVCAR-5 ovarian and in the assay with KM12 colon was greater than 100 µM in each case.
For the compound `CN(C)CCNc1cccc2sc3ccc(O)cc3c(=O)c12`, the GI50 was 1.43 µM in the assay on HCT-15 colon; 3.28 µM with OVCAR-3 ovarian; 3.36 µM with SK-OV-3 ovarian; 1.16 µM with UO-31 renal; 10.8 µM with A498 renal; 1.77 µM in the assay with SF-539 CNS. Moreover, the GI50 with HCC-2998 colon is 1.56 µM; with DU-145 prostate, 1.12 µM; in the assay with OVCAR-5 ovarian, 7.32 µM; with KM12 colon it was 3.22 µM. Further, the TGI with HCT-15 colon was found to be 5.09 µM; in the assay with OVCAR-3 ovarian it was 11.5 µM; in the assay on SK-OV-3 ovarian, 14.4 µM; in the assay on UO-31 renal, 3.58 µM; with A498 renal, 24.1 µM; in the assay on SF-539 CNS, 4.01 µM. In addition, the TGI with HCC-2998 colon is 3.1 µM; with DU-145 prostate, 11.2 µM; in the assay on OVCAR-5 ovarian, 22.8 µM; in the assay on KM12 colon it was 14.3 µM.
On to `CCN(CC)C(=S)SSC1CCCCC1`, for which the GI50 was 19.7 µM in the assay with HCT-15 colon; 31.2 µM in the assay on SK-OV-3 ovarian; 12.1 µM in the assay with UO-31 renal; 30.8 µM with A498 renal; 15.3 µM in the assay with SF-539 CNS; 19.7 µM in the assay on HCC-2998 colon. Further, the GI50 is 20.3 µM with DU-145 prostate, 18.7 µM in the assay with OVCAR-5 ovarian and 13 µM in the assay with KM12 colon. Further, the TGI with HCT-15 colon is 46.4 µM; in the assay with SK-OV-3 ovarian, 75 µM; in the assay on UO-31 renal it was 25.7 µM; in the assay with A498 renal it was greater than 100 µM; in the assay with SF-539 CNS it was 31.7 µM; with HCC-2998 colon, 41.1 µM. Besides, the results for the TGI in the assay with DU-145 prostate, with OVCAR-5 ovarian and in the assay with KM12 colon were 45.5 µM, 32.7 µM and 28.8 µM, respectively.

The record behind these values is PubChem BioAssay (NCI).
